Experimental findings from patent US12076436B2, “Bacterial ferment of Lactobacillus species” (Symrise AG, priority 2021, dated 2024) are described below.

The subject of data set [1] is MatTek EpiDerm 3D reconstituted skin models. The experiment in a line: MTT viability of the 3D skin models. The conditions noted are these: MTT assay at end of experiment; dexamethasone at 50 μM. In kind it is cell-based, human. The method, then: (§1) To assess the effect of the bacterial ferment according to the invention on the secretion levels of IL8, reconstituted 3D skin models (EpiDerm™, MatTek) were used. After a short acclimation phase (daily medium changes), the models were switched to hydrocortisone-free medium, and test compounds were added topically to the reconstituted models. 50 μM dexamethasone was used as positive control, PBS served as negative control in the experiment. After 72 h incubation at 37° C. 5% CO2, the 3D models were washed with PBS and subsequently, an inflammatory response was stimulated by addition of 1 μg/ml Ma in the medium for approx. 24 h. Supernatants were collected after this phase and the IL8 concentration in these supernatants was determined using an ELISA kit (Human […] DuoSet ELISA, R&D Systems). To assess potential toxic effects of the test compounds on the 3D models, a standard MTT assay was carried out to assess viability of the 3D models at the end of the experiment.

Another data set concerns Interleukin-8 (IL8). The experiment in a line: IL8 secretion by EpiDerm 3D reconstituted skin models after IL1a stimulation (ELISA). It counts as cell-based, human. The conditions noted are these: supernatants; 72 h topical treatment, then 1 μg/ml IL1a approx. 24 h; triplicates; dexamethasone at 50 μM. On the procedure: as §1
A further data set deals with Lactobacillus cultures. The experiment in a line: Reduction of Lactobacillus viability by treatment with lactic acid (plating of serial dilutions). In kind it is cell-based.

Take `C[C@@H]1C[C@H]2[C@@H]3CCC4=CC(=O)C=C[C@]4(C)[C@@]3(F)[C@@H](O)C[C@]2(C)[C@@]1(O)C(=O)CO` [Dexamethasone, dexamethasone]: the “Viability (% vs stimulated control)” value in data set [1] was found to be 90 % vs stimulated control. In addition, the “IL-8 concentration [pg/ml] ± SEM” value with Interleukin-8 (IL8) came to 1225 ± 18.61 pg/mL.

For `CC(O)C(=O)O` (stereo not shown) [Lactic Acid, lactic acid], the “Lactobacillus count (log cfu/ml)” value stood at 7.54 log cfu/ml with Lactobacillus cultures (2 % (w/v) lactic acid, 37° C., 12 h); 7.08 log cfu/ml in the data set on Lactobacillus cultures (2.8 % (w/v) lactic acid, 37° C., 12 h); 5.45 log cfu/ml with Lactobacillus cultures (3 % (w/v) lactic acid, 37° C., 12 h); 4.72 log cfu/ml in the data set on Lactobacillus cultures (3.4 % (w/v) lactic acid, 37° C., 12 h); 5.09 log cfu/ml in the data set with Lactobacillus cultures (3.6 % (w/v) lactic acid, 37° C., 12 h); 3.52 log cfu/ml in the data set on Lactobacillus cultures (4 % (w/v) lactic acid, 37° C., 12 h). Also, the “Lactobacillus count (log cfu/ml)” value is listed as 3.60 log cfu/ml in the data set with Lactobacillus cultures (4.4 % (w/v) lactic acid, 37° C., 12 h); 3.00 log cfu/ml with Lactobacillus cultures (4.8 % (w/v) lactic acid, 37° C., 12 h); 1.00 log cfu/ml in the data set with Lactobacillus cultures (5 % (w/v) lactic acid, 37° C., 12 h); 1.38 log cfu/ml with Lactobacillus cultures (5.4 % (w/v) lactic acid, 37° C., 12 h); 1.95 log cfu/ml in the data set on Lactobacillus cultures (6 % (w/v) lactic acid, 37° C., 12 h); 1.70 log cfu/ml in the data set with Lactobacillus cultures (6.8 % (w/v) lactic acid, 37° C., 12 h). The “lactic acid concentration range of optimal reduction of Lactobacillus count” value in the data set with Lactobacillus cultures (37° C., 12 h) is listed as “ca. 5 % (w/v)”. In the data set with Lactobacillus cultures (step c of the method, bacterial ferment supernatant), the “reduction in bacterial count by short pH shock with lactic acid” value was “at least 9 order”.
